Earlier results as cited in PubChem BioAssay AID1259409 (Chemical Carcinogenesis Research Information System (CCRIS), 2018).

System: rodent chemically induced tumor inhibition, incidence and multiplicity
Assay: CCRIS tumor inhibitor studies
Conditions: Dose [Inhibitor]: 0

SMILES	tumour outcome (control, treated, inhibition, significance) (Carcinogen: AZOXYMETHANE, 25843-45-2, 0.02% IN DIET IN WK 1-3 OF STUDY FOLLOWED BY BASAL DIET FOR DURATION OF STUDY (STUDY DURATION: 1 YR), Route [Inhibitor]: ORAL, Species: RAT, Strain/Sex: F344/MALE, Target Tissue: Type of Lesion: LARGE INTESTINE: ADENOCARCINOMA, Dose [Carcinogen]: 15 MG/KG BW 1/WK IN WK 1 AND 2 OF STUDY, Promoter: NONE USED)	tumour outcome (control, treated, inhibition, significance) (Carcinogen: AZOXYMETHANE, 25843-45-2, 0.02% IN DIET IN WK 1-3 OF STUDY FOLLOWED BY BASAL DIET FOR DURATION OF STUDY (STUDY DURATION: 1 YR), Route [Inhibitor]: ORAL, Species: RAT, Strain/Sex: F344/MALE, Target Tissue: Type of Lesion: LARGE INTESTINE: ADENOMA, Dose [Carcinogen]: 15 MG/KG BW 1/WK IN WK 1 AND 2 OF STUDY, Promoter: NONE USED)	tumour outcome (control, treated, inhibition, significance) (Carcinogen: AZOXYMETHANE, 25843-45-2, 0.02% IN DIET IN WK 1-3 OF STUDY FOLLOWED BY BASAL DIET FOR DURATION OF STUDY (STUDY DURATION: 1 YR), Route [Inhibitor]: ORAL, Species: RAT, Strain/Sex: F344/MALE, Target Tissue: Type of Lesion: SMALL INTESTINE: ADENOCARCINOMA, Dose [Carcinogen]: 15 MG/KG BW 1/WK IN WK 1 AND 2 OF STUDY, Promoter: NONE USED)	tumour outcome (control, treated, inhibition, significance) (Carcinogen: (+/-)-7BETA,8ALPHA-DIHYDROXY-9ALPHA,10ALPHA-EPOXY-7,8,9,10-TETRAHYDROBENZO[A]PYR ENE, 58917-67-2, 1400 NMOL (TOTAL DOSE) 10 MIN PRIOR TO CARCINOGEN DOSE INJECTED AS 1/7, 2/7,AND 4/7 OF THE TOTAL ON DAYS 1, 8, AND 15, Route [Inhibitor]: INTRAPERITONEAL, Species: MOUSE, Strain/Sex: ICR/MALE,FEMALE, Target Tissue: Type of Lesion: LUNG: TUMOR, Dose [Carcinogen]: 30 NMOL (TOTAL DOSE) INJECTED IN DOSES OF 1/7, 2/7, AND 4/7 ON DAYS 1,8, AND 15 OF LIFE, RESPECTIVELY, Promoter: NONE USED)	tumour outcome (control, treated, inhibition, significance) (Carcinogen: (+/-)-7BETA,8ALPHA-DIHYDROXY-9ALPHA,10ALPHA-EPOXY-7,8,9,10-TETRAHYDROBENZO[A]PYR ENE, 58917-67-2, 1400 NMOL (TOTAL DOSE) APPLIED 10 MIN PRIOR TO CARCINOGEN DOSE INJECTED AS 1/7, 2/7, AND 4/7 OF THE TOTAL ON DAYS 1,, Route [Inhibitor]: INTRAPERITONEAL, Species: MOUSE, Strain/Sex: ICR/MALE,FEMALE, Target Tissue: Type of Lesion: LUNG: TUMOR, Dose [Carcinogen]: 15 NMOL (TOTAL DOSE) INJECTED IN DOSES OF 1/7, 2/7, AND 4/7 ON DAYS 1, 8, AND 15 OF LIFE, RESPECTIVELY, Promoter: NONE USED)	tumour outcome (control, treated, inhibition, significance) (Carcinogen: (+/-)-7BETA,8ALPHA-DIHYDROXY-9ALPHA,10ALPHA-EPOXY-7,8,9,10-TETRAHYDROBENZO[A]PYR ENE, 58917-67-2, 2500 NMOL IN 200 µL ACETONE:DMSO (90:10) ONCE APPLIED 5 MIN PRIOR TO CARCINOGEN DOSE (STUDY DURATION: 21 WK), Route [Inhibitor]: DERMAL, Species: MOUSE, Strain/Sex: CD-1/FEMALE, Target Tissue: Type of Lesion: SKIN: TUMOR, Dose [Carcinogen]: 200 NMOL IN ACETONE:DMSO (90:10) ONCE, Promoter: 12-O-TETRADECANOYLPHORBOL-13-ACETATE, 16561-29-8)	tumour outcome (control, treated, inhibition, significance) (Carcinogen: BENZO[A]PYRENE, 50-32-8, 1400 NMOL (TOTAL DOSE) APPLIED 10 MIN PRIOR TO CARCINOGEN DOSE INJECTED AS 1/7, 2/7, AND 4/7 OF THE TOTAL ON DAYS 1,, Route [Inhibitor]: INTRAPERITONEAL, Species: MOUSE, Strain/Sex: ICR/MALE,FEMALE, Target Tissue: Type of Lesion: LUNG: TUMOR, Dose [Carcinogen]: 450 NMOL (TOTAL DOSE) INJECTED IN DOSES OF 1/7, 2/7, AND 4/7 ON DAYS 1, 8, AND 15 OF LIFE, RESPECTIVELY, Promoter: NONE USED)	tumour outcome (control, treated, inhibition, significance) (Carcinogen: BENZO[A]PYRENE, 50-32-8, 2500 NMOL IN 200 µL ACETONE:DMSO (90:10) ONCE APPLIED 5 MIN PRIOR TO CARCINOGEN DOSE (STUDY DURATION: 21 WK), Route [Inhibitor]: DERMAL, Species: MOUSE, Strain/Sex: CD-1/FEMALE, Target Tissue: Type of Lesion: SKIN: TUMOR, Dose [Carcinogen]: 50 NMOL IN ACETONE:DMSO (90:10) ONCE, Promoter: 12-O-TETRADECANOYLPHORBOL-13-ACETATE, 16561-29-8)
CC1(C)CC[C@]2(C(=O)O)CC[C@]3(C)C(=CC[C@@H]4[C@@]5(C)CC[C@H](O)C(C)(C)[C@@H]5CC[C@]43C)[C@@H]2C1	13/27 (48%), 6/29 (21%), 56%, not calculated	6/27 (22%), 8/29 (28%), -27%, not significant	6/27 (22%), 3/29 (10%), 55%, not calculated					
O=c1c(O)c(-c2cc(O)c(O)c(O)c2)oc2cc(O)ccc12				93%, 50%, 46%, p<0.05	63%, 41%, 35%, p<0.05	59%, 68%, -15%, not significant	73%, 79%, -8%, not significant	50%, 54%, -8%, not significant
